Legend:
[1] = cited from earlier work
[2] = Chemical stability of rutin at alkaline pH (HPLC); assay type: physicochemical; conditions: rutin 1% w/v dissolved at pH 11.0 and kept for 30 min
[3] = Crystallinity of dried rutin at each pH (XRD); assay type: physicochemical
Description: To study the crystallinity of rutin at each pH, samples of rutin at each pH were stored in a desiccator with silica beads (25 °C) to dry and crystallize. The dried materials were ground using a mortar and pestle and then were analysed for the degree of crystallinity at 20.0 °C using a Rigaku Rapid image-plate detector (Rigaku, The Woodlands, TX, USA) set at 127.40 mm. The Cu Kα radiation (λ = 1.540562 Å) was generated by a Rigaku MicroMax007 microfocus (rotating anode generator; Rigaku, The Woodlands, TX, USA) and an Osmic-Rigaku metal multi-layer optic device (Rigaku, USA) was used for focusing and monochromation. Samples were mounted in Hampton CryoLoops (Hampton Research, Aliso Viejo, CA, USA), and data collection was under the control of RAPID II software (Version 2.4.2, Rigaku, USA). The data were background corrected and converted to a line profile with 2DP programme (Version 1.0.3.4, Rigaku, USA), and the resulting diffractograms were compared using CrystalDiffract software (Version 6.5.5, CrystalMaker Software Ltd., Oxfordshire, UK). A 2θ angle range of 5° to 100° was used for the analysis of all the samples.

[4] = set-up: method as in PMID 25496805, PMID 20201551; conditions: cited from earlier work
[5] = set-up: method as in doi:10.1016/j.foodhyd.2019.05.032; conditions: cited from earlier work
[6] = Aqueous solubility (recovery) of rutin at various pH (centrifugation, HPLC of supernatant); assay type: physicochemical
Description: Rutin was mixed with Milli-Q® (MilliporeSigma, Burlington, MA, USA) water at various concentrations (0.01 to 10% w/v) and the pH of the mixtures increased gradually (while stirring at 300 rpm) until the full dissolution was achieved. […] Then, the pH was increased further until the complete dissolution. […] Samples were taken at each pH point (i.e., pH 1–11) and at each concentration of rutin.
In order to determine the optimum amount of both rutin and NaCas to achieve the best loading, various concentrations of rutin (0.01–4% w/v) were dissolved in a solution of NaCas (0.2–8% w/v) at pH 11, which was then acidified down to pH 6, where the precipitates were formed. A duration of 15 min between each pH adjustment was allowed, and samples were taken along the process at every pH point (i.e., pH 11, 9, 8, 7, and 6; pH below 6 was not considered as the sample withdrawal was not practical due to the co-precipitation of NaCas and rutin). The withdrawn samples were left for 30 min for the complete formation of the possible precipitates. Each sample was then divided into two equal parts; the first part was centrifuged (3000× g, 20 °C, 10 min) in the Amicon Ultra-15 Centrifugal Filter Units containing a cellulose membrane with a molecular weight cut-off of […] (Ultracel-100K, Millipore, Burlington, MA, USA) to remove both precipitates and colloidally stable complexes, while the second part was simply filtered using a 0.45 µm membrane (Millipore) to remove the precipitates only. The concentration of rutin in the ultrafiltrates, as well as the filtrates (the second part), was determined using HPLC analysis, and the rutin recovery% was calculated correspondingly. As the control, the same concentration of rutin (1%) was also treated and analysed the same way as the rutin–NaCas mixture. In this study, for simplicity, the recovery % of rutin is referred to as its solubility.

For `C[C@@H]1O[C@@H](OC[C@H]2O[C@@H](Oc3c(-c4ccc(O)c(O)c4)oc4cc(O)cc(O)c4c3=O)[C@H](O)[C@@H](O)[C@@H]2O)[C@H](O)[C@H](O)[C@H]1O` [rutin], the Decomposition of rutin ([1]; 0.2 M NaOH, with or without beta-cyclodextrin) is given as “slow decomposition”, the Rutin concentration remaining ([1]; after 5 h, pH constantly adjusted to 8) is given as “approximately 20%” and the Rutin concentration ([1]; weak acidic conditions (pH 5)) is given as “remained almost unchanged”. The “Decrease in initial concentration of rutin (chemical stability)” value [2] was roughly 10%, the “Crystallinity of dried rutin particles (XRD)” value (“Crystallinity” for short) ([3]; pH 11 and 10) was “amorphous” and the “Crystallinity” value ([3]; pH < 8) was “crystalline form”. For the same compound, the “Crystallinity” value ([3]; pH close to 1.0) was “crystalline rutin was not present”, the logP [4] was 0.15 and the Solubility in ethanol [5] was “about 4 % w/v”. For the same compound, the “Aqueous solubility of rutin” value ([6]; 0.01% w/v rutin in water, regardless of the pH) was “most of the rutin was soluble”, the “Aqueous solubility (recovery): fraction of rutin soluble” value ([6]; dispersion containing 5% rutin, pH 9) was “about 90%” and the “Concentration of rutin that could be dissolved” value ([6]; pH 11.0) was 10 % (w/v). The “Solubility (recovery) of rutin” value ([6]; pH < 6, 1% w/v rutin, regardless of association with NaCas) was “almost all rutin was precipitated”.

From paper PMC8781550, “The Effect of pH and Sodium Caseinate on the Aqueous Solubility, Stability, and Crystallinity of Rutin towards Concentrated Colloidally Stable Particles for the Incorporation into Functional Foods” (Molecules, 2022)
